B1: partially purified native β-chain: crude preparation of native β-hCG (protein, UniProt P0DN86 21-165, looked up)
Choriogonadotropin subunit …: SKEPLRPRCRPINATLAVEKEGCPVCITVNTTICAGYCPTMTRVLQGVLPALPQVVCNYRDVRFESIRLPGCPRGVNPVVSYAVALSCQCALCRRSTTDCGGPKDHPLTCDDPRFQDSSSSKAPPPSLPSPSRLPGPSDTPILPQ
modifications: native, partially purified
notes: crude preparation of native β-hCG

Test system: Hematopoietic progenitor cells from normal bone marrow and cord blood
Test: Clonogenic (colony) assays of hematopoietic progenitor cells in methylcellulose (CFU-MIX, BFU-e, CFU-GM)
Type: cell-based, human
Details: hCG preparations 200 IU/ml, subunits and peptides 100 μg/ml, 10 days, aggregates of more than 50 cells counted
Description: Hematopoietic progenitor cells (2×10^5 cell/ml) were isolated from normal bone marrow and cord blood and seeded in methylcellulose. […] Aggregates containing more than 50 cells after 10 days of culture were counted as colonies.

Row | Molecule | growth of hematopoietic progenitors (pro-hematopoietic activity, colony numbers) | growth of hematopoietic progenitors (pro-hematopoietic activity, colony numbers) (listed as whole β-chain)
1 | α-hCG peptide 88-92: α-hCG peptide of amino acids 88-92 (YYHKS; UniProt P01215 112-116, looked up, fragment) | little or no effects | 
2 | β-hCG peptide 7-40: β-hCG peptide of amino acids 7-40 (PRCRPINATLAVEKEGCPVCITVNTTICAGYCPT; UniProt P0DN86 27-60, looked up, fragment) | little or no effects | 
3 | β-hCG peptide 34-49: β-hCG peptide of amino acids 34-49 (CAGYCPTMTRVLQGVL; UniProt P0DN86 54-69, looked up, fragment) | little or no effects | 
4 | β-hCG peptide 38-57: β-hCG peptide of amino acids 38-57 (CPTMTRVLQGVLPALPQVVC; UniProt P0DN86 58-77, looked up, fragment) | little or no effects | 
5 | β-hCG peptide 57-93: β-hCG peptide of amino acids 57-93 (CNYRDVRFESIRLPGCPRGVNPVVSYAVALSCQCALC; UniProt P0DN86 77-113, looked up, fragment) | little or no effects | 
6 | β-hCG peptide 74-95: β-hCG peptide of amino acids 74-95 | little or no effects | 
7 | β-hCG peptide 100-110: β-hCG peptide of amino acids 100-110 (CGGPKDHPLTC; UniProt P0DN86 120-130, looked up, fragment) | little or no effects | 
8 | B1 | directly promoted | considerable pro-hematopoietic activity

— US5968513A (priority 1996, dated 1999)
